Assay results taken from patent US20230364070A1, “PYRROLO[3,2-C]PYRIDIN-4-ONE DERIVATIVES USEFUL IN THE TREATMENT OF CANCER” (Scorpion Therapeutics, Inc., priority 2020, published 2023).

Legend:
Type in all cases: cell-based
Ba/F3 cells with EGFR WT = biological target: T1, Ba/F3 cells with EGFR WT (Homo sapiens, UniProt P00533); assay: EGFR activity: Ba/F3 cell viability (CellTiter-Glo, 72 h), EGFR WT; details: read-out: BaF3 WT IC50
T1 construct: expressed in transfected cells; host or cells: Ba/F3 (murine pro-B cells), retroviral transduction, puromycin selection, maintained with EGF

[1] = biological target: T2, Ba/F3 cells with EGFR exon 20 NPG Ins D770_N771 (Homo sapiens, UniProt P00533, INS770NPG); assay: EGFR activity: Ba/F3 cell viability (CellTiter-Glo, 72 h), EGFR exon 20 NPG insertion; details: EGFR exon 20 NPG Ins D770_N771, cell viability, read-out: BaF3 NPG IC50
T2 construct: expressed in transfected cells; host or cells: Ba/F3 (murine pro-B cells), retroviral transduction, puromycin selection, IL3-independent pool

[2] = biological target: T3, Ba/F3 cells with EGFR exon 20 ASV Ins V769_D770 (Homo sapiens, UniProt P00533, INS769ASV); assay: EGFR activity: Ba/F3 cell viability (CellTiter-Glo, 72 h), EGFR exon 20 ASV insertion; details: EGFR exon 20 ASV Ins V769_D770, cell viability, read-out: BaF3 ASV IC50
T3 construct: expressed in transfected cells; host or cells: Ba/F3 (murine pro-B cells), retroviral transduction, puromycin selection, IL3-independent pool
T3 sequence (P00533 with tags, fused parts or gaps INS769ASV): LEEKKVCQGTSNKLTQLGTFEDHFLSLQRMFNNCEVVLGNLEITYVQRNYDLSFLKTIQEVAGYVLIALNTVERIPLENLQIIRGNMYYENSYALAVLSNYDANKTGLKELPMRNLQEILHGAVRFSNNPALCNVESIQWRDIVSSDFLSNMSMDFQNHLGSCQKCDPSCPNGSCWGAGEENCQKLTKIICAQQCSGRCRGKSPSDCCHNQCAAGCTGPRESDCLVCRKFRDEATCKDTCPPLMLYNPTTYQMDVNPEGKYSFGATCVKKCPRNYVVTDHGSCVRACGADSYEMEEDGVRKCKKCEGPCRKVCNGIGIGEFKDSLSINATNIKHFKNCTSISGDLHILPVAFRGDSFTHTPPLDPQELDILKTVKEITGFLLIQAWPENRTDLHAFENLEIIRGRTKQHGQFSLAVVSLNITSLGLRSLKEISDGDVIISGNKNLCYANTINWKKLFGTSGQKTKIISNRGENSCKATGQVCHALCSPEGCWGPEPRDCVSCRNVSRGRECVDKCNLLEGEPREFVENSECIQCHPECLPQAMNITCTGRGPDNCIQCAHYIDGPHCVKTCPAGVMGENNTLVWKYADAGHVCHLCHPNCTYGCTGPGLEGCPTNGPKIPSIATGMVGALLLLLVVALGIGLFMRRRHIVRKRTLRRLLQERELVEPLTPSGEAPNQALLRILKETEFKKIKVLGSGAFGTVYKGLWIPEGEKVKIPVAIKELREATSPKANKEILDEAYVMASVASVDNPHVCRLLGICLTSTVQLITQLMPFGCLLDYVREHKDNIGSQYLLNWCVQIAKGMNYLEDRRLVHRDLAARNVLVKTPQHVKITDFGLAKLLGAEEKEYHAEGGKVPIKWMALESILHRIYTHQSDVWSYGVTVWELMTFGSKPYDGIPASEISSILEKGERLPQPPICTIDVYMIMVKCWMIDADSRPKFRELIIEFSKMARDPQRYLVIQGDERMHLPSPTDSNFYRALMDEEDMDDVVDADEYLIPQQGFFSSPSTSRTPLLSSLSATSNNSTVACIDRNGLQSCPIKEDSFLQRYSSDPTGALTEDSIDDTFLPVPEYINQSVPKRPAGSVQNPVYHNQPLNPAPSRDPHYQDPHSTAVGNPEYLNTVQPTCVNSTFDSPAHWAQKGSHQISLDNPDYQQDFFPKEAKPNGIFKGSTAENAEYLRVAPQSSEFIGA

T2 sequence (P00533 with tags, fused parts or gaps INS770NPG): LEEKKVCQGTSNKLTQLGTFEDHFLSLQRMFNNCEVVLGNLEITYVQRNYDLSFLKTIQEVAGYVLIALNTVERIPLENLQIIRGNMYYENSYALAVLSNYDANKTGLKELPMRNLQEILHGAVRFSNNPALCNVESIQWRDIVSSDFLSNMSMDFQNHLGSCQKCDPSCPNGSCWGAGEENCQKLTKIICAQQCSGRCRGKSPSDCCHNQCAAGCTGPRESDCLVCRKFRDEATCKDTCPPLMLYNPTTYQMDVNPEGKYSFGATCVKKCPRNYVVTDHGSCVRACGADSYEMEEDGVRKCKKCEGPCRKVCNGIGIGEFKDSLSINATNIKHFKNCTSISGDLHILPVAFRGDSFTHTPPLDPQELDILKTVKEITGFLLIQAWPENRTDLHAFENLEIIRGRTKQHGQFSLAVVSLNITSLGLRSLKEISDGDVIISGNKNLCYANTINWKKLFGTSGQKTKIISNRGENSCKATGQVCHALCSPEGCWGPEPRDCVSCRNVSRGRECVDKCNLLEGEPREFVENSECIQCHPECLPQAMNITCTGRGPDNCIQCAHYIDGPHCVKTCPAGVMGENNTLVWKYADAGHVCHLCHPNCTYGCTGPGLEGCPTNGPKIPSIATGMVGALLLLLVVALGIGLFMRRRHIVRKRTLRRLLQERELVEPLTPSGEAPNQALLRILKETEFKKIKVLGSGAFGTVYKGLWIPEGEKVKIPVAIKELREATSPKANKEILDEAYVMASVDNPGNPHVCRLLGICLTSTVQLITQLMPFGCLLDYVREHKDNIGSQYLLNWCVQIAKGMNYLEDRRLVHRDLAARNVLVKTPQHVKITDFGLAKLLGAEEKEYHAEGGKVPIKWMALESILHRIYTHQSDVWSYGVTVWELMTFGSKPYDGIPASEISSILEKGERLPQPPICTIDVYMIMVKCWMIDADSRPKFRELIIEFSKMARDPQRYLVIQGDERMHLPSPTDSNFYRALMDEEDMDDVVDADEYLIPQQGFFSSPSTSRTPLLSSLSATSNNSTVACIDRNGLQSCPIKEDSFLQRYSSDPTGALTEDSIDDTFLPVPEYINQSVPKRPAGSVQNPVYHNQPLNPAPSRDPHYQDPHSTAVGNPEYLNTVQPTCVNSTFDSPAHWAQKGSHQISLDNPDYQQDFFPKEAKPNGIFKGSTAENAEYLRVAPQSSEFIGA
T1 sequence (P00533 25-1210): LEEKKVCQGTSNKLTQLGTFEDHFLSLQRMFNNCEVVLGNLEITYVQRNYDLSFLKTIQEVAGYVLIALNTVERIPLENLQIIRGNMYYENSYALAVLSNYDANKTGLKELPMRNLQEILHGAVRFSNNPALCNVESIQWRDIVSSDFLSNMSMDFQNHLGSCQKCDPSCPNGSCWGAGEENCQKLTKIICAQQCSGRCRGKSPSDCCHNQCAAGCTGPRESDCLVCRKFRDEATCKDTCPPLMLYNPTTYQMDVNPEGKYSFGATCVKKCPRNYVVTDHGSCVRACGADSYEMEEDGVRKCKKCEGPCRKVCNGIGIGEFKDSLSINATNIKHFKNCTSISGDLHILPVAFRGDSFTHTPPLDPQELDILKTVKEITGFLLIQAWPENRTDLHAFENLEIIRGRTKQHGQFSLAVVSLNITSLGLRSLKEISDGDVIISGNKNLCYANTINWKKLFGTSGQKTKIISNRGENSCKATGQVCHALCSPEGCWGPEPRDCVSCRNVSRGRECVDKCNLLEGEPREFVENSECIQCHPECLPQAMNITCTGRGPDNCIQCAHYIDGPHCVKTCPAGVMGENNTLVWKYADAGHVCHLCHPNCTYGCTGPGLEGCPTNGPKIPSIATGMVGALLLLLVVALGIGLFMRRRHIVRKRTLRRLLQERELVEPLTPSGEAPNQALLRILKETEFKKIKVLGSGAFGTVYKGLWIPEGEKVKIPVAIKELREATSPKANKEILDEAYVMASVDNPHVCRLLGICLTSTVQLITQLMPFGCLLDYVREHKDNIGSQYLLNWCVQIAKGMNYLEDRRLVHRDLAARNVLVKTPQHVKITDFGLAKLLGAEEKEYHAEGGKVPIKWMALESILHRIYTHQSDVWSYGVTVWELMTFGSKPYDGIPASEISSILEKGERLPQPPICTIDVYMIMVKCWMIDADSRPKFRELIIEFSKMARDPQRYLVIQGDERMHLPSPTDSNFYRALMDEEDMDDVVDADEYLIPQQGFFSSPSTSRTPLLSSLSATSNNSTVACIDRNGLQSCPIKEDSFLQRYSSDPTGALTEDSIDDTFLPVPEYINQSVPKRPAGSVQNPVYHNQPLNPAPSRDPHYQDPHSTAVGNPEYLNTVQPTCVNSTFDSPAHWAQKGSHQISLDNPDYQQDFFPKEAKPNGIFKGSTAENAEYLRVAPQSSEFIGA

| Compound | IC50 (Ba/F3 cells with EGFR WT) [nM] | IC50 [1] [nM] | IC50 [2] [nM] |
| --- | --- | --- | --- |
| C=CC(=O)NC1(C#Cc2cnccc2-c2[nH]c3c(c2Nc2cccc(Cl)c2OC)C(=O)NCC3)CN(C)C1 [compound 410] | > 1000 | < 100 | 100 to 1000 |
| C=CC(=O)NC(C)(C)C#Cc1cnccc1-c1[nH]c2c(c1Nc1cc(F)cc(Cl)c1OC)C(=O)NCC2 [compound 428] | 100 to 1000 | < 100 | < 100 |
| COc1c(Cl)cc(F)cc1Nc1c(-c2ccncc2C#C[C@@]2(C)CCCN2C(=O)C#CCN(C)C)[nH]c2c1C(=O)NCC2 [compound 432] | 100 to 1000 | < 100 | < 100 |
| COc1c(Cl)cc(F)cc1Nc1c(-c2ccncc2C#CC23CC(CN2C(=O)/C=C/CN(C)C)C3)[nH]c2c1C(=O)NCC2 [compound 438] | 100 to 1000 | < 100 | < 100 |
| C=CC(=O)NC1(C#Cc2cnccc2-c2[nH]c3c(c2Nc2cccc(Cl)c2OC)C(=O)NCC3)CNC1 [compound 455] | > 1000 | > 1000 | > 1000 |
| COc1c(F)cccc1Nc1c(-c2ccncc2C#C[C@@]2(C)COCCN2C(=O)/C=C/CN(C)C)[nH]c2c1C(=O)NCC2 [compound 459] | > 1000 | < 100 | < 100 |
| C=CC(=O)N1CCOC[C@]1(C)C#Cc1cnccc1-c1[nH]c2c(c1Nc1cccc(F)c1OC)C(=O)NCC2 [compound 460] | 100 to 1000 | < 100 | < 100 |
| C=CC(=O)N1CCOC[C@]1(C)C#Cc1cnccc1-c1[nH]c2c(c1Nc1cccc(Cl)c1OC)C(=O)NCC2 [compound 461] | 100 to 1000 | < 100 | < 100 |
| COc1c(Cl)cccc1Nc1c(-c2ccncc2C#C[C@H]2CN(C)CCO2)[nH]c2c1C(=O)NCC2 [compound 495] | 100 to 1000 | < 100 | < 100 |
| Cc1c(F)cccc1Nc1c(-c2ccncc2C#CC(C)(C)C)[nH]c2c1C(=O)NCC2 [compound 499] | > 1000 | < 100 | < 100 |
| COc1c(Cl)cccc1Nc1c(-c2ccncc2C#CC2CCCC2)[nH]c2c1C(=O)NCC2 [compound 526] | 100 to 1000 | < 100 | < 100 |
| C=C(CN(C)C)C(=O)NC(C)(C)C#Cc1cnccc1-c1[nH]c2c(c1Nc1cccc(Cl)c1OC)C(=O)NCC2 [compound 574] | < 100 | < 100 | < 100 |
| C=C(CN(C)C)C(=O)NC(C)(C)C#Cc1cnccc1-c1[nH]c2c(c1Nc1cccc(F)c1OC)C(=O)NCC2 [compound 575] | < 100 | < 100 | < 100 |
| C=CC(=O)N[C@H](C#Cc1cnccc1-c1[nH]c2c(c1Nc1cccc(Cl)c1OC)C(=O)NCC2)CC [compound 581] | 100 to 1000 | < 100 | < 100 |
| C=CC(=O)N[C@@H](C#Cc1cnccc1-c1[nH]c2c(c1Nc1cccc(Cl)c1OC)C(=O)NCC2)CC [compound 582] | > 1000 | < 100 | < 100 |
| COc1c(F)cccc1Nc1c(-c2ccncc2C#C[C@H]2CCN2C(=O)/C=C/CN(C)C)[nH]c2c1C(=O)NCC2 [compound 593] | 100 to 1000 | < 100 | < 100 |
| COc1c(F)cccc1Nc1c(-c2ccncc2C#C[C@@H]2CCN2C(=O)/C=C/CN(C)C)[nH]c2c1C(=O)NCC2 [compound 594] | > 1000 | < 100 | < 100 |
| COc1c(Cl)cccc1Nc1c(-c2ccncc2C#C[C@@]2(C)CCCN2C(=O)/C=C/CNC2COC2)[nH]c2c1C(=O)NCC2 [compound 595] | > 1000 | < 100 | 100 to 1000 |
| COc1c(Cl)cccc1Nc1c(-c2ccncc2C#C[C@@]2(C)CCCN2C(=O)/C=C/CN2CC(F)(F)C2)[nH]c2c1C(=O)NCC2 [compound 603] | > 1000 | 100 to 1000 | 100 to 1000 |
| CC#CC(=O)N1CC[C@@H]1COc1cnccc1-c1[nH]c2cc[nH]c(=O)c2c1Nc1cccc(Cl)c1OC [compound 630] | > 1000 | < 100 | < 100 |
